Reference: US20230295162A1 (EÖTVÖS LORÁND TUDOMÁNYEGYETEM, priority 2020, published 2023)

Columns and labels:
[1] = tested on: A2058 (human metastatic melanoma) cells; test: Colorimetric alamarBlue assay, long treatment; details: Homo sapiens, A2058, 72 h, read-out: cytotoxicity expressed in IC50, A-2058
[2] = tested on: PANC-1 (human pancreatic carcinoma) cells; test: Impedance-based viability assay (xCELLigence SP), long treatment; type: cell-based; details: 72 h, read-out: cytotoxicity expressed in IC50, PANC-1
Excerpt: (Gibco®/Invitrogen Corporation, New York, NY, USA).
Data obtained from each experiment represent mathematical averages.

[3] = tested on: H2228 lung cancer cell line; test: High-throughput screening, CellTiter-Glo cell viability assay at 100 nM; type: cell-based, human; details: Homo sapiens, NCI-H2228, HTS, compounds at 100 nM, 72 h, read-out: cytotoxicity expressed in IC50, H2228 (results of High throughput screening)
[4] = tested on: EBC-1 lung cancer cell line; test: as above; type: cell-based, human; details: Homo sapiens, EBC-1, HTS, compounds at 100 nM, 72 h, read-out: cytotoxicity expressed in IC50, EBC-1 (results of High throughput screening)
[5] = tested on: COLO-205 (human colorectal adenocarcinoma) cells; test: Colorimetric alamarBlue assay, long treatment; details: COLO 205, 72 h, read-out: cytotoxicity expressed in IC50, COLO-205
[6] = tested on: A-431 (human squamous carcinoma) cells; test: Short term cytotoxicity, MTT assay; type: cell-based; details: 1 h treatment then 72 h culture, read-out: cytotoxicity expressed in IC50, A-431
Experimental: (§1) For the short term cytotoxicity studies the A-431 (human squamous carcinoma) and U-87 (human primary glioblastoma) cells were cultured in RPMI-1640 medium supplemented with 10% FCS (fetal calf serum, Sigma Ltd.), 2 mM L-glutamine, and […] gentamicin. Cell cultures were maintained at 37° C. in a humidified atmosphere with 5% CO2. The cells were grown to confluency and were distributed into 96-well plate with initial cell number of 5.0×10^3 per well. After 24 h incubation at 37° C., the cells were treated with the compounds in 200 μL final volume containing 1.0 v/v % DMSO. The cells were incubated with the compounds at 10^−4-10^2 μM concentration range for 1 h. Control cells were treated with serum free medium (RPMI-1640) only or with DMSO (c=1.0 v/v %) at 37° C. for 1 h. After incubation the cells were washed twice with serum free (RPMI-1640) medium. To determine the in vitro cytostatic effect, the cells were cultured for a further 72 h in 10% serum containing medium. MTT-solution ([…], 2 mg/mL, final concentration: 0.37 mg/mL) was added to each well. The respiratory chain [26, 27] and other electron transport systems reduce MTT and thereby form non-water-soluble violet formazane crystals within the cell. […] After 4 h of incubation the cells were centrifuged for 5 min (900 g) and the supernatant was removed. The obtained formazane crystals were dissolved in DMSO ([…]) and optical density (OD) of the samples was measured at λ=540 and 620 nm, respectively, using ELISA Reader (iEMS Reader, Labsystems, Finland). OD620 values were subtracted from OD540 values. The percent of cytostasis was calculated by using the following equation: Cytostatic effect (%)=[1−(ODtreated/ODcontrol)]×100 Values ODtreated and ODcontrol correspond to the optical densities of the treated and the control cells, respectively. In each case two independent experiments were carried out with 4 parallel measurements. […] The curves were defined using Microcal™ Origin1 (version 7.5) software: cytostasis was plotted as a function of concentration, fitted to a sigmoidal curve, and based on this curve, the half maximal inhibitory concentration (IC50) value was determined.

[7] = tested on: U-87 (human primary glioblastoma) cells; test: Short term cytotoxicity, MTT assay; type: cell-based; details: 1 h treatment then 72 h culture, read-out: cytotoxicity expressed in IC50, U-87
Experimental: as §1

[8] = tested on: Panc1 pancreatic cancer cell line; test: CellTiter-Glo IC50 (Example 19); type: cell-based; details: Homo sapiens, PANC-1, 72 h
Experimental: (§2) Some representative imipridones and ONC212 as reference were further tested on the following human malignant cell lines: PC3 and LNCap (prostate carcinoma); BxPC3, MiaPaCa2 and Panc1 (pancreatic cancer); A549, HCC827, H1993 and H520 (lung carcinoma); MDA-MB-453 and MDA-MB-231 (breast cancer) (see Table 2 and FIGS. 1-11).
(§3) Cell lines were maintained according to the instructions provided by ATCC (https://www.lgcstandards-atcc.org/) in a 5% CO2 humidified incubator maintained at 37° C. temperature. Effects of compounds on cell viability were measured via CellTiter-Glo® luminescent cell viability assay (Promega, Madison, WI, USA) Cells were plated at 1000 cells/well onto a flat-bottomed, white 96 well plate (BRANDplates, cat. no.: 781965). […] After the treatment, medium was removed and CellTiter-Glo® reagent was added. The luminescence signal was recorded using a microplate reader (BioTek Synergy 2 Multi-Mode Reader, BioTek, Winooski, VT, USA).
(§4) Cell viability data (% of untreated control cells) was evaluated with Microsoft Excel. Dose-response curves (using a non-linear regression model, log (inhibitor) vs response, variable slope) were generated and IC50 values were determined using Graph Pad Prism 5.02 software (GraphPad Software, San Diego, CA, USA).

Fadu cell line = test: Additional in vitro IC50 tests (Table 3); type: cell-based; details: Homo sapiens
Experimental: as §3, §4

Detroit 562 cell line = test: Additional in vitro IC50 tests (Table 3); type: cell-based; details: Homo sapiens
Experimental: as §3, §4

EBC-1 cell line = test: Additional in vitro IC50 tests (Table 3); type: cell-based; details: Homo sapiens
Experimental: as §3, §4

H2228 cell line = test: Additional in vitro IC50 tests (Table 3); type: cell-based; details: Homo sapiens, NCI-H2228
Experimental: as §3, §4

SCC-25 cell line = test: Additional in vitro IC50 tests (Table 3); type: cell-based; details: Homo sapiens
Experimental: as §3, §4

[9] = tested on: representative cell lines; test: Cytotoxicity on representative cell lines (summary statement); type: cell-based; details: Homo sapiens; summary range, ca.
[10] = tested on: MiaPaCa2 pancreatic cancer cell line; test: CellTiter-Glo IC50 (Example 19); type: cell-based; details: Homo sapiens, MIA PaCa-2, 72 h
Experimental: as §2, §3, §4

[11] = tested on: H1993 lung carcinoma cell line; test: CellTiter-Glo IC50 (Example 19); type: cell-based; details: Homo sapiens, NCI-H1993, 72 h
Experimental: as §2, §3, §4

[12] = tested on: H520 lung carcinoma cell line; test: CellTiter-Glo IC50 (Example 19); type: cell-based; details: Homo sapiens, NCI-H520, 72 h
Experimental: as §2, §3, §4

[13] = tested on: BxPC3 pancreatic cancer cell line; test: CellTiter-Glo IC50 (Example 19); type: cell-based; details: Homo sapiens, BXPC-3, 72 h
Experimental: as §2, §3, §4

[14] = tested on: HCC827 lung carcinoma cell line; test: CellTiter-Glo IC50 (Example 19); type: cell-based; details: Homo sapiens, 72 h
Experimental: as §2, §3, §4

[15] = tested on: A549 lung carcinoma cell line; test: CellTiter-Glo IC50 (Example 19); type: cell-based; details: Homo sapiens, 72 h
Experimental: as §2, §3, §4

[16] = tested on: LNCap human prostate cancer cell line; test: CellTiter-Glo IC50 (Example 19); type: cell-based; details: 72 h
Experimental: as §2, §3, §4

[17] = tested on: PC3 human prostate cancer cell line; test: CellTiter-Glo IC50 (Example 19); type: cell-based; details: 72 h
Experimental: as §2, §3, §4

[18] = tested on: MDA-MB-231 breast cancer cell line; test: CellTiter-Glo IC50 (Table 3); type: cell-based; details: Homo sapiens
Experimental: as §2, §3, §4

[19] = tested on: MDA-MB-453 breast cancer cell line; test: CellTiter-Glo IC50 (Table 3); type: cell-based; details: Homo sapiens
Experimental: as §2, §3, §4

SMILES	IC50 [1] [nM]	IC50 [2] [nM]	IC50 [3] [nM]	IC50 [4] [nM]	IC50 [5] [nM]	IC50 [6] [nM]	IC50 [7] [nM]	further results
O=C1C2=C(CCN(Cc3ccccc3F)C2)N2CCN=C2N1Cc1ccc(C(F)(F)F)c(F)c1 [I/26]	> 10000	920	> 100	> 100	> 10000	3630	3510	
O=C1C2=C(CCN(Cc3cc(F)cc(F)c3)C2)N2CCN=C2N1C(CO)c1ccc(Cl)cc1 (racemic) [I/128]								IC50 [8]: 10 nM; melting point: 86 °C; IC50 (Fadu cell line): 12 nM; IC50 (Detroit 562 cell line): 5 nM; IC50 (EBC-1 cell line): 13 nM; IC50 (H2228 cell line): 12 nM; IC50 (SCC-25 cell line): 19 nM
O=C1C2=C(CCN(Cc3ccccc3)C2)N2CCN=C2N1Cc1cc(F)c(F)c(F)c1 [I/9]	> 10000	2220			> 10000	1390	6020	
O=C1C2=C(CCN(Cc3ccccc3)C2)N2CCN=C2N1Cc1ccc(F)cc1 [I/5]	250	250	> 100	> 100	247	3550	> 25000	
O=C1C2=C(CCN(Cc3cccc(F)c3)C2)N2CCN=C2N1Cc1ccc(C(F)(F)F)c(F)c1 [I/31]		76.7	< 100	< 100		< 200	> 25000	
NCc1cccc(CN2C(=O)C3=C(CCN(Cc4cccc(F)c4)C3)N3CCN=C23)c1 [I/60]	> 10000	430	> 100	> 100	> 10000	< 200	416	
O=C1C2=C(CCN(Cc3ccccc3)C2)N2CCN=C2N1Cc1cccc(F)c1 [I/8]	1730	1420	> 100	> 100	4960	7290	> 25000	
O=C1C2=C(CCN(Cc3cccc(F)c3)C2)N2CCN=C2N1Cc1ccc(I)cc1 [I/46]	> 10000	25	~100	< 100		6160	25000	
O=C1C2=C(CCN(Cc3ccc(C(F)(F)F)cc3)C2)N2CCN=C2N1Cc1ccc(C(F)(F)F)c(F)c1 [I/27]	12800	25000	> 100	> 100	25000	8950	5990	
O=C1C2=C(CCN(Cc3cc(F)cc(F)c3)C2)N2CCN=C2N1Cc1ccc(Br)cc1 [I/39, 4-(4-Bromobenzyl)-7-(3,5-difluorobenzyl)-2,4,6,7,8,9-hexahydroimidazo[1,2-a]pyrido[3,4-e]pyrimidin-5(1H)-one]		3	< 100	< 100				IC50 [9]: 3 to 8 nM; IC50 [10]: 4 nM; IC50 [8]: 4 nM; IC50 [11]: 3 nM; IC50 [12]: 3 nM; IC50 [13]: 3 nM; IC50 [14]: 4 nM; IC50 [15]: 4 nM; IC50 [16]: 2 nM; IC50 [17]: 2 nM; melting point: 173.5 °C; IC50 [18]: < 1 nM; IC50 [19]: < 1 nM; IC50 (Fadu cell line): 5 nM; IC50 (Detroit 562 cell line): 3 nM; IC50 (EBC-1 cell line): 4 nM; IC50 (H2228 cell line): 6 nM; IC50 (SCC-25 cell line): 7 nM
O=C1C2=C(CCN(Cc3ccc(F)cc3)C2)N2CCN=C2N1Cc1ccc(C(F)(F)F)c(F)c1 [I/28]	> 10000	960	> 100	> 100	3270	2660	17600	
